In PubChem BioAssay AID2060897 (Molecular Pharmacology Branch, DTP, NCI, 2025):

Test system: 966289-007-R4-J1-PDC complex spheroid viability
Assay: Anticancer human tumor 966289-007-R4-J1-PDC patient-derived pancreatic adenocarcinoma cell line growth inhibition [RAS]
Settings: for IC50: curve of first compound; for viability, T/C: stronger effect = lower value
In short: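 Multi-cell-type spheroids: tumor cells plus HUVEC endothelial cells and mesenchymal stem cells. RAS-pathway inhibitors were combined with targeted agents, each dosed in half-log steps down from clinical Cmax, or from 10 microM when Cmax was unknown.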

[1] = second compound 0.00316 µM, first compound 0.0316 µM
[2] = second compound 0.00316 µM, first compound 0.1 µM
[3] = second compound 0.00316 µM, first compound 0.316 µM
[4] = second compound 0.00316 µM, first compound 1 µM
[5] = second compound 0.01 µM, first compound 0.0316 µM
[6] = second compound 0.01 µM, first compound 0.1 µM
[7] = second compound 0.01 µM, first compound 0.316 µM
[8] = second compound 0.01 µM, first compound 1 µM
[9] = second compound 0.0316 µM, first compound 0.0316 µM
[10] = second compound 0.0316 µM, first compound 0.1 µM
[11] = second compound 0.0316 µM, first compound 0.316 µM
[12] = second compound 0.0316 µM, first compound 1 µM
[13] = second compound 0.1 µM, first compound 0.0316 µM
[14] = second compound 0.1 µM, first compound 0.1 µM
[15] = second compound 0.1 µM, first compound 0.316 µM
[16] = second compound 0.1 µM, first compound 1 µM
[17] = second compound 0.316 µM, first compound 0.0316 µM
[18] = second compound 0.316 µM, first compound 0.1 µM
[19] = second compound 0.316 µM, first compound 0.316 µM
[20] = second compound 0.316 µM, first compound 1 µM
[21] = second compound 1 µM, first compound 0.0316 µM
[22] = second compound 1 µM, first compound 0.1 µM
[23] = second compound 1 µM, first compound 0.316 µM
[24] = second compound 1 µM, first compound 1 µM
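Further: spheroids exposed to agents for one week before readout.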
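Wherever viability, T/C is given: percent viability relative to DMSO vehicle control wells as 100%.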

With CCN1CCN(Cc2ccc(Nc3ncc(F)c(-c4cc(F)c5nc(C)n(C(C)C)c5c4)n3)nc2)CC1 + C=CC(=O)N1CCN(c2nc(OCC3CCCN3C)nc3c(F)c(-c4nc(N)cc(C)c4C(F)(F)F)c(Cl)cc23)C(C)C1 the IC50 (second compound 0.00316 µM) was over 1000 nM, the IC50 (second compound 0.01 µM) was over 1000 nM and the IC50 (second compound 0.0316 µM) was over 1000 nM. The IC50 (second compound 0.1 µM) was over 1000 nM, the IC50 (second compound 0.316 µM) was over 1000 nM and the IC50 (second compound 1 µM) was over 1000 nM. For the same molecule, the viability, T/C (second compound 0.00316 µM, first compound 0.00316 µM) was 109%, the viability, T/C (second compound 0.00316 µM, first compound 0.01 µM) was 110% and the viability, T/C [1] was 101%. For the same molecule, the viability, T/C [2] was 95.8%, the viability, T/C [3] was 83.5% and the viability, T/C [4] was 76.2%. It also gave a viability, T/C (second compound 0.01 µM, first compound 0.00316 µM) of 96%, a viability, T/C (second compound 0.01 µM, first compound 0.01 µM) of 110% and a viability, T/C [5] of 120%. For the same molecule, the viability, T/C [6] was 107%, the viability, T/C [7] was 99.1% and the viability, T/C [8] was 72.6%. The viability, T/C (second compound 0.0316 µM, first compound 0.00316 µM) was 116%, the viability, T/C (second compound 0.0316 µM, first compound 0.01 µM) was 126% and the viability, T/C [9] was 106%. The viability, T/C [10] was 113%, the viability, T/C [11] was 84.8% and the viability, T/C [12] was 72.8%. The viability, T/C (second compound 0.1 µM, first compound 0.00316 µM) was 107%, the viability, T/C (second compound 0.1 µM, first compound 0.01 µM) was 121% and the viability, T/C [13] was 121%. The viability, T/C [14] was 109%, the viability, T/C [15] was 78.8% and the viability, T/C [16] was 78.7%. It also gave a viability, T/C (second compound 0.316 µM, first compound 0.00316 µM) of 106%, a viability, T/C (second compound 0.316 µM, first compound 0.01 µM) of 103% and a viability, T/C [17] of 120%. The viability, T/C [18] was 105%, the viability, T/C [19] was 89.4% and the viability, T/C [20] was 73.4%. The viability, T/C (second compound 1 µM, first compound 0.00316 µM) was 98.5%, the viability, T/C (second compound 1 µM, first compound 0.01 µM) was 98.6% and the viability, T/C [21] was 120%. The viability, T/C [22] was 102%, the viability, T/C [23] was 79% and the viability, T/C [24] was 77.2%.

Nc1ccn(C2OC(CO)C(O)C2(F)F)c(=O)n1 (stereo unspecified) + CCn1c(-c2cc(N3CCN(C)CC3)cnc2C(C)OC)c2c3cc(ccc31)-c1csc(n1)CC(NC(=O)C1CC1C)C(=O)N1CCCC(N1)C(=O)OCC(C)(C)C2 was tested, and the IC50 (second compound 0.000949 µM) was 6.04 nM, the IC50 (second compound 0.003 µM) was 6.3 nM and the IC50 (second compound 0.00949 µM) was 6.2 nM. For the same molecule, the IC50 (second compound 0.03 µM) was 6.34 nM, the IC50 (second compound 0.0949 µM) was 6.96 nM and the IC50 (second compound 0.3 µM) was 12.5 nM. The viability, T/C (second compound 0.000949 µM, first compound 0.00316 µM) was 97.8%, the viability, T/C (second compound 0.000949 µM, first compound 0.01 µM) was 12.9% and the viability, T/C (second compound 0.000949 µM, first compound 0.0316 µM) was 1.26%. The viability, T/C (second compound 0.000949 µM, first compound 0.1 µM) was 0.95%, the viability, T/C (second compound 0.000949 µM, first compound 0.316 µM) was 1.14% and the viability, T/C (second compound 0.000949 µM, first compound 1 µM) was 1.37%. It also gave a viability, T/C (second compound 0.003 µM, first compound 0.00316 µM) of 102%, a viability, T/C (second compound 0.003 µM, first compound 0.01 µM) of 14.8% and a viability, T/C (second compound 0.003 µM, first compound 0.0316 µM) of 1.26%. The viability, T/C (second compound 0.003 µM, first compound 0.1 µM) was 1.21%, the viability, T/C (second compound 0.003 µM, first compound 0.316 µM) was 1.3% and the viability, T/C (second compound 0.003 µM, first compound 1 µM) was 1.36%. It also gave a viability, T/C (second compound 0.00949 µM, first compound 0.00316 µM) of 101%, a viability, T/C (second compound 0.00949 µM, first compound 0.01 µM) of 13.7% and a viability, T/C (second compound 0.00949 µM, first compound 0.0316 µM) of 1.25%. It also gave a viability, T/C (second compound 0.00949 µM, first compound 0.1 µM) of 1.19%, a viability, T/C (second compound 0.00949 µM, first compound 0.316 µM) of 1.09% and a viability, T/C (second compound 0.00949 µM, first compound 1 µM) of 1.04%. The viability, T/C (second compound 0.03 µM, first compound 0.00316 µM) was 97%, the viability, T/C (second compound 0.03 µM, first compound 0.01 µM) was 19.3% and the viability, T/C (second compound 0.03 µM, first compound 0.0316 µM) was 1.26%. The viability, T/C (second compound 0.03 µM, first compound 0.1 µM) was 1.2%, the viability, T/C (second compound 0.03 µM, first compound 0.316 µM) was 1.06% and the viability, T/C (second compound 0.03 µM, first compound 1 µM) was 1.12%. For the same molecule, the viability, T/C (second compound 0.0949 µM, first compound 0.00316 µM) was 97.2%, the viability, T/C (second compound 0.0949 µM, first compound 0.01 µM) was 28.2% and the viability, T/C (second compound 0.0949 µM, first compound 0.0316 µM) was 1.31%. It also gave a viability, T/C (second compound 0.0949 µM, first compound 0.1 µM) of 1.32%, a viability, T/C (second compound 0.0949 µM, first compound 0.316 µM) of 1.4% and a viability, T/C (second compound 0.0949 µM, first compound 1 µM) of 1.29%. For the same molecule, the viability, T/C (second compound 0.3 µM, first compound 0.00316 µM) was 97.6%, the viability, T/C (second compound 0.3 µM, first compound 0.01 µM) was 61.5% and the viability, T/C (second compound 0.3 µM, first compound 0.0316 µM) was 2.02%. It also gave a viability, T/C (second compound 0.3 µM, first compound 0.1 µM) of 1.27%, a viability, T/C (second compound 0.3 µM, first compound 0.316 µM) of 1.51% and a viability, T/C (second compound 0.3 µM, first compound 1 µM) of 1.21%.

Work on Cc1nc(N2CCC3(CC2)COC(C)C3N)c(CO)nc1Sc1ccnc(N)c1Cl (stereo unspecified) + C=CC(=O)N1CCN(c2nc(OCC3CCCN3C)nc3c(F)c(-c4nc(N)cc(C)c4C(F)(F)F)c(Cl)cc23)C(C)C1 yielded an IC50 (second compound 0.00316 µM) of over 10000 nM, an IC50 (second compound 0.01 µM) of over 10000 nM and an IC50 (second compound 0.0316 µM) of over 10000 nM. It also gave an IC50 (second compound 0.1 µM) of over 10000 nM, an IC50 (second compound 0.316 µM) of over 10000 nM and an IC50 (second compound 1 µM) of over 10000 nM. For the same molecule, the viability, T/C [1] was 100%, the viability, T/C [2] was 90.2% and the viability, T/C [3] was 121%. For the same molecule, the viability, T/C [4] was 105%, the viability, T/C (second compound 0.00316 µM, first compound 3.16 µM) was 106% and the viability, T/C (second compound 0.00316 µM, first compound 10 µM) was 80%. It also gave a viability, T/C [5] of 109%, a viability, T/C [6] of 89.6% and a viability, T/C [7] of 109%. The viability, T/C [8] was 94.6%, the viability, T/C (second compound 0.01 µM, first compound 3.16 µM) was 100% and the viability, T/C (second compound 0.01 µM, first compound 10 µM) was 98.6%. The viability, T/C [9] was 106%, the viability, T/C [10] was 97.9% and the viability, T/C [11] was 110%. The viability, T/C [12] was 105%, the viability, T/C (second compound 0.0316 µM, first compound 3.16 µM) was 108% and the viability, T/C (second compound 0.0316 µM, first compound 10 µM) was 84.7%. The viability, T/C [13] was 91.1%, the viability, T/C [14] was 107% and the viability, T/C [15] was 107%. It also gave a viability, T/C [16] of 99.9%, a viability, T/C (second compound 0.1 µM, first compound 3.16 µM) of 101% and a viability, T/C (second compound 0.1 µM, first compound 10 µM) of 81.6%. It also gave a viability, T/C [17] of 111%, a viability, T/C [18] of 102% and a viability, T/C [19] of 123%. For the same molecule, the viability, T/C [20] was 114%, the viability, T/C (second compound 0.316 µM, first compound 3.16 µM) was 97.8% and the viability, T/C (second compound 0.316 µM, first compound 10 µM) was 101%. The viability, T/C [21] was 91.3%, the viability, T/C [22] was 98.1% and the viability, T/C [23] was 112%. For the same molecule, the viability, T/C [24] was 107%, the viability, T/C (second compound 1 µM, first compound 3.16 µM) was 104% and the viability, T/C (second compound 1 µM, first compound 10 µM) was 97.1%.
